What follows are molecules tested on JR251 or RBL cells (assay: Store-operated calcium entry, either JR251 or RBL cells, or both).
Format: cell-based
Procedure: The day prior to performing the assay, RBL-2H3 cells are plated in 50 μL of complete medium in a 384 well plate. Cells are grown at 37° C./6% CO2 overnight and grow to 50-60% confluence by the next day. On the assay day, 1.5 μM Fluo-4-AM dye (Invitrogen) in complete medium is added and incubated for 1 hour at RT. Cells are washed twice in Ca^2+-free HBSS buffer and 35 μL Ca^2+-free HBSS buffer is added to each well. 10 μL of a test compound prepared in a Ca^2+-free HBSS solution at 4.5× of the desired concentration is added to a well and incubated for 5 minutes at RT. 10 μL of thapsigargin prepared in a Ca^2+-free HBSS solution at 5.5× of the desired concentration (5.5 uM) is added to each well and incubated for an additional 25 minutes. The initial baseline fluorescence signal is measured with a FLIPR^384 (Molecular Devices) plate reader. 5 μL of 12× calcium in HBSS (12 mM) is added and changes in cellular fluorescence are measured with the FLIPR^384 plate reader. In each well, the change in the fluorescent signal as a function of time due to calcium entry into the cell is determined by calculating the difference between the fluorescent signal measured 7 seconds after calcium addition and the initial baseline fluorescence signal at time zero (t=0). This parameter is designated Upslope. The IC50 value is calculated as the concentration at which 50% of the Upslope is inhibited.

IC50 [µM] | Compound
< 10 | Cc1ccc(-c2csc(NC(=O)c3cc4c(C)nn(C)c4s3)c2C(=O)O)cc1 [2-(1,3-dimethyl-1H-thieno[2,3-c]pyrazole-5-carboxamido)-4-p-tolylthiophene-3-carboxylic acid]
< 10 | Cc1ccc(-c2csc(NC(=O)c3cc(C)n(C)n3)c2C(=O)O)cc1 [2-(1,5-dimethyl-1H-pyrazole-3-carboxamido)-4-p-tolylthiophene-3-carboxylic acid]
< 10 | O=C(Nc1scc(-c2ccc(Cl)cc2)c1C(=O)O)c1nc2ccccc2[nH]1 [2-(1H-benzo[d]imidazole-2-carboxamido)-4-(4-chlorophenyl)thiophene-3-carboxylic acid]
< 10 | O=C(Nc1scc(-c2ccc(Cl)cc2)c1C(=O)O)c1ccc(-c2cccs2)s1 [2-(2,2′-bithiophene-5-carboxamido)-4-(4-chlorophenyl)thiophene-3-carboxylic acid]
< 10 | Cc1ccc(-c2csc(NC(=O)c3ccc(-c4cccs4)s3)c2C(=O)O)cc1 [2-(2,2′-bithiophene-5-carboxamido)-4-p-tolylthiophene-3-carboxylic acid]
< 10 | Cc1ccc(-c2csc(NC(=O)c3cc(Cl)sc3Cl)c2C(=O)O)cc1 [2-(2,5-dichlorothiophene-3-carboxamido)-4-p-tolylthiophene-3-carboxylic acid]
< 10 | Cc1ccc(-c2csc(NC(=O)c3cc(C)oc3C)c2C(=O)O)cc1 [2-(2,5-dimethylfuran-3-carboxamido)-4-p-tolylthiophene-3-carboxylic acid]
< 10 | CC(C)C(C(=O)Nc1scc(-c2ccc(Cl)c(Cl)c2)c1C(=O)O)c1ccc(Cl)cc1 (stereo not shown) [2-(2-(4-chlorophenyl)-3-methylbutanamido)-4-(3,4-dichlorophenyl)thiophene-3-carboxylic acid]
< 10 | O=C(Cc1cc2ccccc2o1)Nc1scc(-c2ccc(Br)cc2)c1C(=O)O [2-(2-(benzofuran-2-yl)acetamido)-4-(4-bromophenyl)thiophene-3-carboxylic acid]
< 10 | O=C(Cc1coc2ccccc12)Nc1scc(-c2ccc(Br)cc2)c1C(=O)O [2-(2-(benzofuran-3-yl)acetamido)-4-(4-bromophenyl)thiophene-3-carboxylic acid]
< 10 | O=C(CSc1ccccc1)Nc1scc(-c2ccc(C(F)(F)F)cc2)c1C(=O)O [2-(2-(phenylthio)acetamido)-4-(4-(trifluoromethyl)phenyl)thiophene-3-carboxylic acid]
< 10 | CC(C)(C)C(Cc1ccccc1)C(=O)Nc1scc(-c2ccc(Cl)cc2)c1C(=O)O (stereo not shown) [2-(2-benzyl-3,3-dimethylbutanamido)-4-(4-chlorophenyl)thiophene-3-carboxylic acid]
< 10 | O=C(O)c1c(-c2ccc(Cl)cc2)csc1NC(=O)C(Cl)Cc1ccccc1Cl (stereo not shown) [2-(2-chloro-3-(2-chlorophenyl)propanamido)-4-(4-chlorophenyl)thiophene-3-carboxylic acid]
< 10 | O=C(O)c1c(-c2ccc(Cl)cc2)csc1NC(=O)C(Cl)Cc1ccccc1 (stereo not shown) [2-(2-chloro-3-phenylpropanamido)-4-(4-chlorophenyl)thiophene-3-carboxylic acid]
< 10 | Cc1ccc(-c2csc(NC(=O)c3cc(-c4ccccc4)oc3C)c2C(=O)O)cc1 [2-(2-methyl-5-phenylfuran-3-carboxamido)-4-p-tolylthiophene-3-carboxylic acid]
< 10 | O=C(O)c1c(-c2ccc(Cl)cc2)csc1NC(=O)C(F)Cc1cc(F)c(F)cc1Cl (stereo not shown) [2-(3-(2-chloro-4,5-difluorophenyl)-2-fluoropropanamido)-4-(4-chlorophenyl)thiophene-3-carboxylic acid]

IC50 [µM] | Compound
< 10 | O=C(O)c1c(-c2ccc(Cl)cc2)csc1NC(=O)C(F)Cc1ccc(F)cc1Cl (stereo not shown) [2-(3-(2-chloro-4-fluorophenyl)-2-fluoropropanamido)-4-(4-chlorophenyl)thiophene-3-carboxylic acid]
< 10 | O=C(O)c1c(-c2ccc(Cl)cc2)csc1NC(=O)C(F)Cc1cc(F)ccc1Cl (stereo not shown) [2-(3-(2-chloro-5-fluorophenyl)-2-fluoropropanamido)-4-(4-chlorophenyl)thiophene-3-carboxylic acid]
< 10 | O=C(O)c1c(-c2ccc(Cl)cc2)csc1NC(=O)C(F)Cc1c(F)cccc1Cl (stereo not shown) [2-(3-(2-chloro-6-fluorophenyl)-2-fluoropropanamido)-4-(4-chlorophenyl)thiophene-3-carboxylic acid]
< 10 | O=C(NCc1ccccc1)Nc1scc(-c2ccc(Br)cc2)c1C(=O)O [2-(3-benzylureido)-4-(4-bromophenyl)thiophene-3-carboxylic acid]
< 10 | O=C(NCc1ccccc1)Nc1scc(-c2ccc(Cl)cc2)c1C(=O)O [2-(3-benzylureido)-4-(4-chlorophenyl)thiophene-3-carboxylic acid]
< 10 | CC(C)S(=O)(=O)c1csc(C(=O)Nc2scc(-c3ccc(Cl)cc3)c2C(=O)O)c1Cl [2-(3-chloro-4-(isopropylsulfonyl)thiophene-2-carboxamido)-4-(4-chlorophenyl)thiophene-3-carboxylic acid]
< 10 | Cc1ccc(-c2csc(NC(=O)c3scc(S(=O)(=O)C(C)C)c3Cl)c2C(=O)O)cc1 [2-(3-chloro-4-(isopropylsulfonyl)thiophene-2-carboxamido)-4-p-tolylthiophene-3-carboxylic acid]
< 10 | CS(=O)(=O)c1csc(C(=O)Nc2scc(-c3ccc(Cl)cc3)c2C(=O)O)c1Cl [2-(3-chloro-4-(methylsulfonyl)thiophene-2-carboxamido)-4-(4-chlorophenyl)thiophene-3-carboxylic acid]
< 10 | Cc1ccc(-c2csc(NC(=O)c3scc(S(C)(=O)=O)c3Cl)c2C(=O)O)cc1 [2-(3-chloro-4-(methylsulfonyl)thiophene-2-carboxamido)-4-p-tolylthiophene-3-carboxylic acid]
< 10 | Cc1ccsc1C(=O)Nc1scc(-c2ccc(C(F)(F)F)cc2)c1C(=O)O [2-(3-methylthiophene-2-carboxamido)-4-(4-(trifluoromethyl)phenyl)thiophene-3-carboxylic acid]
< 10 | Cc1ccc(-c2csc(NC(=O)c3sccc3C)c2C(=O)O)cc1 [2-(3-methylthiophene-2-carboxamido)-4-p-tolylthiophene-3-carboxylic acid]
< 10 | Cc1ccc(-c2csc(NC(=O)c3cc4c(Cl)cc(Cl)cc4[nH]3)c2C(=O)O)cc1 [2-(4,6-dichloro-1H-indole-2-carboxamido)-4-p-tolylthiophene-3-carboxylic acid]
< 10 | Cc1ccc(-c2csc(NC(=O)c3scc(S(=O)(=O)c4ccc(Cl)cc4)c3C)c2C(=O)O)cc1 [2-(4-(4-chlorophenylsulfonyl)-3-methylthiophene-2-carboxamido)-4-p-tolylthiophene-3-carboxylic acid]
< 10 | O=C(Nc1scc(-c2cc3cccc(O)c3o2)c1C(=O)O)c1cc2c(F)cccc2o1 [2-(4-fluorobenzofuran-2-carboxamido)-4-(7-hydroxybenzofuran-2-yl)thiophene-3-carboxylic acid]
< 10 | Cc1ccc(-c2csc(NC(=O)c3nc4cc(Br)ccc4o3)c2C(=O)O)c(F)c1F [2-(5-bromobenzo[d]oxazole-2-carboxamido)-4-(2,3-difluoro-4-methylphenyl)thiophene-3-carboxylic acid]

— patent publication US8394848B2, “Compounds that modulate intracellular calcium” (Calcimedica, Inc., priority 2008, dated 2013)
